In patent publication US20210267865A1, “COSMETIC COMPOSITION FOR INCREASING SKIN EXFOLIATION” (LG HOUSEHOLD & HEALTH CARE LTD., priority 2018, published 2021):

Key:
pig skin = assay: Evaluation of pig skin exfoliation (number of exfoliated cells from biopsied pig skin); settings: for activity versus gluconolactone (PHA) or lactic acid (AHA) at pH 4: neutral or weakly acidic pH of 5-7
Experimental: The exfoliation evaluation method described in Journal of the European Academy of Dermatology and Venereology, 2014, 28, 415-423 was used. Specifically, pig skin was biopsied and a sample to be tested was added. Then, the number of exfoliated cells was measured with a cell counter and was plotted with water as a negative control group (0%) and 10% gluconolactone at pH 4 as a positive control group (100%).

[1] = system: stratum corneum of inside forearm and upper arm; assay: Evaluation of exfoliation turnover enhancement by DHA staining (human skin test); type: in vivo; settings: for turnover time (TT100): polyol humectant content 10% or 50%, non-application group 20 days
Experimental: DHA staining for evaluating the speed of exfoliation turnover was conducted for 10 healthy males aged between 20 and 40 years according to the method described in Dermatology 1993, 186, 133-137. Prior to sample application, the color of the inside forearm and upper arm of the test subjects was measured with Chroma Meter. Then, a 1.5×1.5 cm gauze soaked with about 0.4 mL of 10% dihydroxyacetone (DHA) was attached to the inside forearm and upper arm for 8 hours. 48 hours later, the color of the part that was pigmented brown by DHA was compared with that before the sample application. Subsequently, while applying the sample twice a day, the time required to return to the original skin color was measured by measuring the skin color every day with Chroma Meter. TT (turnover time) 100% means the time required for the existing stratum corneum to be completely (100%) replaced with a new stratum corneum. In this experiment, the time required for the skin pigmented by DHA corneum to completely return to the original color was compared by regression analysis. The result was compared with that of the negative control group (20 days).

[2] = with glycerin, dipropylene glycol or 1,3-butylene glycol, polyol humectant content exceeding 10 wt %

C[N+](C)(C)CC(O)CC(=O)[O-] (centres unmarked) [Carnitine, carnitine]
exfoliation effect (pig skin; 5% carnitine, pH 7, concentration of glycerin higher than 10 wt % (FIG. 2)): 0%
exfoliation activity (pig skin; 5% carnitine, pH 7, with 10% or 12% glycerin, dipropylene glycol or 1,3-butylene glycol (FIG. 5)): decreased to the levels where human skin test is meaningless
Exfoliation ability % (pig skin; carnitine 0.5 wt %, glycerin 0 wt %): 61%
Exfoliation ability % (pig skin; carnitine 0.5 wt %, glycerin 0.5 wt %): 50%
Exfoliation ability % (pig skin; carnitine 0.5 wt %, glycerin 1 wt %): 18%
Exfoliation ability % (pig skin; carnitine 0.5 wt %, glycerin 5 wt %): 11%
Exfoliation ability % (pig skin; carnitine 0.5 wt %, glycerin 10 wt %): 0%
Exfoliation ability % (pig skin; carnitine 5 wt %, glycerin 0 wt %): 100%
Exfoliation ability % (pig skin; carnitine 5 wt %, glycerin 0.1 wt %): 89%
Exfoliation ability % (pig skin; carnitine 5 wt %, glycerin 0.5 wt %): 91%
Exfoliation ability % (pig skin; carnitine 5 wt %, glycerin 1 wt %): 55%
Exfoliation ability % (pig skin; carnitine 5 wt %, glycerin 2 wt %): 53%
Exfoliation ability % (pig skin; carnitine 5 wt %, glycerin 3 wt %): 30%
Exfoliation ability % (pig skin; carnitine 5 wt %, glycerin 4 wt %): 19%
Exfoliation ability % (pig skin; carnitine 5 wt %, glycerin 5 wt %): 12%
Exfoliation ability % (pig skin; carnitine 5 wt %, glycerin 7 wt %): 5%
Exfoliation ability % (pig skin; carnitine 5 wt %, glycerin 10 wt %): 4%
Exfoliation ability % (pig skin; carnitine 5 wt %, glycerin 12 wt %): 0%
Exfoliation ability % (pig skin; carnitine 5 wt %, glycerin 15 wt %): 0%
activity versus gluconolactone (PHA) or lactic acid (AHA) at pH 4 (pig skin): comparable to or better than
exfoliation effect (pig skin; [2]): 0%
turnover time (TT100) [1]: no significant difference

N[C@@H](CO)C(=O)O [Serine, serine]
exfoliating effect (pig skin; 5% serine with humectant mixtures (glycerin 1:DPG 1:1,3-BG 1) (FIG. 6)): decreased similarly
exfoliation effect (pig skin; 5% serine, pH 6, concentration of glycerin 10% or higher (FIG. 1)): 0%
exfoliation activity (pig skin; 5% serine, pH 6, dipropylene glycol or 1,3-butylene glycol exceeding 10% (FIGS. 3 and 4)): decreased below that of water (negative control group)
activity versus gluconolactone (PHA) or lactic acid (AHA) at pH 4 (pig skin): comparable to or better than
Exfoliation ability % (pig skin; serine 0.5 wt %, glycerin 0 wt %): 56%
Exfoliation ability % (pig skin; serine 0.5 wt %, glycerin 0.5 wt %): 53%
Exfoliation ability % (pig skin; serine 0.5 wt %, glycerin 1 wt %): 34%
Exfoliation ability % (pig skin; serine 0.5 wt %, glycerin 5 wt %): 19%
Exfoliation ability % (pig skin; serine 0.5 wt %, glycerin 10 wt %): 13%
Exfoliation ability % (pig skin; serine 5 wt %, glycerin 0 wt %): 91%
Exfoliation ability % (pig skin; serine 5 wt %, glycerin 0.1 wt %): 85%
Exfoliation ability % (pig skin; serine 5 wt %, glycerin 0.5 wt %): 86%
Exfoliation ability % (pig skin; serine 5 wt %, glycerin 1 wt %): 59%
Exfoliation ability % (pig skin; serine 5 wt %, glycerin 2 wt %): 47%
Exfoliation ability % (pig skin; serine 5 wt %, glycerin 3 wt %): 23%
Exfoliation ability % (pig skin; serine 5 wt %, glycerin 4 wt %): 26%
Exfoliation ability % (pig skin; serine 5 wt %, glycerin 5 wt %): 21%
Exfoliation ability % (pig skin; serine 5 wt %, glycerin 7 wt %): 16%
Exfoliation ability % (pig skin; serine 5 wt %, glycerin 10 wt %): 16%
Exfoliation ability % (pig skin; serine 5 wt %, glycerin 12 wt %): −2%
Exfoliation ability % (pig skin; serine 5 wt %, glycerin 15 wt %): −5%
exfoliation effect (pig skin; [2]): 0%
decrease of TT100% versus non-application group ([1]; 5% serine, applied twice a day): 6 days
TT100% (turnover time) ([1]; 5% serine, applied twice a day, non-application group 20 days (FIG. 13)): 14 days
turnover time (TT100) [1]: no significant difference
visual change after application for 10 days ([1]; serine alone at concentrations of 0.5% and 5% (FIG. 12)): effective
visual change after application for 10 days ([1]; serine with glycerin concentration 10% or 50% (FIG. 12)): no significant difference from the non-application group
TT100% (turnover time) ([1]; serine with glycerin concentration 10% or 50% (FIG. 13)): no significant difference from the non-application group
